The source made the active and inactive calls. The calls are words filed in the database; no cut-off is given here.
Assays:
[1] = target: Delta-type opioid receptor (Rattus norvegicus, UniProt P33533); assay: Binding affinity to rat delta opioid receptor
[2] = target: Mu-type opioid receptor (Rattus norvegicus, UniProt P33535); assay: Binding affinity to rat mu opioid receptor
[3] = target: T1, Delta-type opioid receptor (Homo sapiens, UniProt P41143); assay: Agonist activity at delta opioid receptor expressed in CHO-hg cells by [35S]-GTPgammaS binding assay; assay type: functional, cell-based
[4] = target: T2, Mu-type opioid receptor (Homo sapiens, UniProt P35372); assay: Agonist activity at mu opioid receptor expressed in CHO-hg cells by [35S]-GTPgammaS binding assay; assay type: functional, cell-based
[5] = target: T1, Delta-type opioid receptor; assay: Antagonist activity at delta opioid receptor expressed in CHO-hg cells assessed as inhibition of SNC-80-induced [35S]-GTPgammaS binding; assay type: functional, cell-based
[6] = Antagonist activity at delta opioid receptor in hamster vas deferens tissue; assay type: functional, tissue-based; settings: Cricetinae
[7] = target: T3, Kappa-type opioid receptor (Cavia porcellus, UniProt P41144); assay: Binding affinity to guinea pig kappa opioid receptor
[8] = target: T3, Kappa-type opioid receptor; assay: Agonist activity at kappa opioid receptor guinea pig colon tissue; assay type: functional, tissue-based
[9] = target: Cytochrome P450 3A4 (Homo sapiens, UniProt P08684); assay: Inhibition of CYP3A4 in human liver microsomes; assay type: ADME, Microsome
[10] = Half life in human liver microsomess; assay type: ADME, Microsome; settings: liver microsomes
[11] = Solubility of the compound at pH 7.4; assay type: physicochemical; settings: buffer
[12] = target: T2, Mu-type opioid receptor; assay: Binding affinity to human mu opioid receptor
[13] = target: Voltage-gated inwardly rectifying potassium channel KCNH2 (Homo sapiens, UniProt Q12809); assay: Displacement of [3H]-astemizole from human ERG
Sequence of Voltage-gated inwardly rectifying potassium channel KCNH2 (Q12809 whole entry): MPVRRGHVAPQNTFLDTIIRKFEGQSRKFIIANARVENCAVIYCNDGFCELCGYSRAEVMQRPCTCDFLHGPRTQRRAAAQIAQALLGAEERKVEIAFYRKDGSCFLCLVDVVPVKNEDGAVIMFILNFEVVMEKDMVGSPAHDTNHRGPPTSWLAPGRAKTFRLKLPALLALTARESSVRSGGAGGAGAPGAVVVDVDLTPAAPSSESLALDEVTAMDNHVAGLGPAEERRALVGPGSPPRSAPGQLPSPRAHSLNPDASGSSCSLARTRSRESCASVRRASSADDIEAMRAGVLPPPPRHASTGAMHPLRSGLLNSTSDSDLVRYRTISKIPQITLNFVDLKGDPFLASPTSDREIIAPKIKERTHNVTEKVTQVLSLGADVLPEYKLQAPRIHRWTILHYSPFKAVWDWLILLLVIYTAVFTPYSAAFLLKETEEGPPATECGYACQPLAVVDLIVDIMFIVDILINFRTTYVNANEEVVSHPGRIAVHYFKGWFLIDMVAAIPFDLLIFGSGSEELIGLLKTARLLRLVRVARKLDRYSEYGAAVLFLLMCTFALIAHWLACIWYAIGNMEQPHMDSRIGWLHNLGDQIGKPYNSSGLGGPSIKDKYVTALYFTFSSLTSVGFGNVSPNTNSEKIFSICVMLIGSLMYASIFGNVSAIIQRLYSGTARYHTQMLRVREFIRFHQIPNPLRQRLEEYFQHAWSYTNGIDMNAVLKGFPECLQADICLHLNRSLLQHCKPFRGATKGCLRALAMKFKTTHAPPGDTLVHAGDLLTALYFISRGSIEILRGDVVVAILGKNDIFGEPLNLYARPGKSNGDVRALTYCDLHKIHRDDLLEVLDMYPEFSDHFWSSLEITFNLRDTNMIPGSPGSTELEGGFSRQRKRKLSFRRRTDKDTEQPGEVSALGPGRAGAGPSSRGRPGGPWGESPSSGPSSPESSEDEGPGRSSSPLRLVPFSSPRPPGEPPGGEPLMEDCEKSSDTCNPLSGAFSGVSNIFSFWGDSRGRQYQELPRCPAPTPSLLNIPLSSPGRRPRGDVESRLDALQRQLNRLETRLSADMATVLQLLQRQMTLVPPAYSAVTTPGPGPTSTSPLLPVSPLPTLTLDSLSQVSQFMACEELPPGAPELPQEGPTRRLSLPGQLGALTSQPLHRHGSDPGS

Sequence of Mu-type opioid receptor (Rattus norvegicus, UniProt P33535) (P33535 whole entry): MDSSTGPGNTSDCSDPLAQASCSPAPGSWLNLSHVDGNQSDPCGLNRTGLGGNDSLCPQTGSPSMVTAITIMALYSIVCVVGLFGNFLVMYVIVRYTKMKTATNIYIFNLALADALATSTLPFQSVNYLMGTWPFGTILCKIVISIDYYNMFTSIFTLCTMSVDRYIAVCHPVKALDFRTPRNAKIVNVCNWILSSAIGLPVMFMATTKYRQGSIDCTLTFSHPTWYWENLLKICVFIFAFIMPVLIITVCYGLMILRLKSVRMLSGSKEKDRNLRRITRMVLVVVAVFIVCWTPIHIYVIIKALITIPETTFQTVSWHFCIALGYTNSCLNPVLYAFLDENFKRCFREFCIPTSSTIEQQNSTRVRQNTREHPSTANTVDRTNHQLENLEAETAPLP
Sequence of Delta-type opioid receptor (Rattus norvegicus, UniProt P33533) (P33533 whole entry): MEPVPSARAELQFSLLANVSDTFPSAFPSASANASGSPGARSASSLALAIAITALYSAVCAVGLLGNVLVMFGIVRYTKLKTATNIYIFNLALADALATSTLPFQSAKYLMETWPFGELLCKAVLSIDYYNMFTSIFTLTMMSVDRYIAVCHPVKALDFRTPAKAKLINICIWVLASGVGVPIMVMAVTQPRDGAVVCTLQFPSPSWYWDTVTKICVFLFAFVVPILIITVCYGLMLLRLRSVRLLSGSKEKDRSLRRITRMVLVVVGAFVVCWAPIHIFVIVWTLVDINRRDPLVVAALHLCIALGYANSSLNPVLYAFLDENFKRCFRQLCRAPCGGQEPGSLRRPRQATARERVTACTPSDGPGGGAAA
T2 sequence (P35372 whole entry): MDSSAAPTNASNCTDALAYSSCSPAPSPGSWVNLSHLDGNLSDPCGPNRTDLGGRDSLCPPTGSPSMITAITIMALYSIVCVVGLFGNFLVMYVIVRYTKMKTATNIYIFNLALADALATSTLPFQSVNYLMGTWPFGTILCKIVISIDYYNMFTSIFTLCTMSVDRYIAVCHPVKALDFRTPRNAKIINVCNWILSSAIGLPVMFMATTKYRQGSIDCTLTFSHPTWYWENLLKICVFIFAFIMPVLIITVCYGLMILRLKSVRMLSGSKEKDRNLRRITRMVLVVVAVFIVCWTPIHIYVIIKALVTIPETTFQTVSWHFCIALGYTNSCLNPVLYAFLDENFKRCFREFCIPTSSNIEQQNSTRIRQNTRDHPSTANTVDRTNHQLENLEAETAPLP
T1 sequence (P41143 whole entry): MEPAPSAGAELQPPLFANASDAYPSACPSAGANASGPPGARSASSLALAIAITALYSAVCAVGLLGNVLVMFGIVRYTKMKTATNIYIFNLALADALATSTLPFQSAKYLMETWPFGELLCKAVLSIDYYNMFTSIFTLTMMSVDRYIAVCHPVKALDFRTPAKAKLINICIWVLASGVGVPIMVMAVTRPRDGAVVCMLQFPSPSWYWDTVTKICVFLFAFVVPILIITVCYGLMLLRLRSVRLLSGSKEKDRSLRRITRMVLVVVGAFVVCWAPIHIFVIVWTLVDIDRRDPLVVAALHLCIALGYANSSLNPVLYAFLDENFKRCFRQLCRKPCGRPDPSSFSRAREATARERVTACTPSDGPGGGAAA
T3 sequence (P41144 whole entry): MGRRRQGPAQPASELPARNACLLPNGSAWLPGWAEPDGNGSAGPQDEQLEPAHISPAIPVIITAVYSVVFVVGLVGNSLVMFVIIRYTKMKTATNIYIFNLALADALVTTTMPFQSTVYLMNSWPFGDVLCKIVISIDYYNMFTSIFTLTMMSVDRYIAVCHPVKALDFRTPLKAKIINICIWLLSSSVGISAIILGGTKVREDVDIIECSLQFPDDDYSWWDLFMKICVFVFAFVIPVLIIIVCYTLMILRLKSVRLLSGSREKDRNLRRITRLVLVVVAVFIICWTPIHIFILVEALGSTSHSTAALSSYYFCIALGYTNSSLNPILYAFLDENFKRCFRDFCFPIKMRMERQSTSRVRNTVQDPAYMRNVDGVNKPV
Sequence of Cytochrome P450 3A4 (P08684 whole entry): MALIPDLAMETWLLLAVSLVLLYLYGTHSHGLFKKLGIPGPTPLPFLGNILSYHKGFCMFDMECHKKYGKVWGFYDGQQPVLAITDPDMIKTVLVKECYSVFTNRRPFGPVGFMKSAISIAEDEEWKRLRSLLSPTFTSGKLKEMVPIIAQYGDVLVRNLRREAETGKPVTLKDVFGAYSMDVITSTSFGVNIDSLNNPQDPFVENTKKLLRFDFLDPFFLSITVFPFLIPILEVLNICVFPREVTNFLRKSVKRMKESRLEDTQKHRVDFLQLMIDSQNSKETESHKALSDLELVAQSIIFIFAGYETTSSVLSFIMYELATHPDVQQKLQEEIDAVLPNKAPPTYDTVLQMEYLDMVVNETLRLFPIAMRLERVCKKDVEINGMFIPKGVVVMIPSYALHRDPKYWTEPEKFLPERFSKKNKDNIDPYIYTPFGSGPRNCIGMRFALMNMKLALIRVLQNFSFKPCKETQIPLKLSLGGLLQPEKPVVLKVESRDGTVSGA

SMILES	Ki [1]	Ki [2]	EC50 [3]	EC50 [4]	also measured
Cc1cc(O)cc(C)c1C[C@H](N)C(=O)N(Cc1ccccc1)[C@@H](C)c1nc(-c2ccccc2)c[nH]1	1.5 nM	–	–	–	–
Cc1cc(O)cc(C)c1C[C@H](N)C(=O)N(C)[C@@H](C)c1nc(-c2ccccc2)c[nH]1	15 nM	–	–	–	–
Cc1cc(O)cc(C)c1C[C@H](N)C(=O)N(Cc1nc(-c2ccccc2)c[nH]1)C(C)C	15 nM	0.1 nM	–	–	–
Cc1cc(O)cc(C)c1C[C@H](N)C(=O)N(C(C)C)[C@@H](C)c1nc(-c2ccccc2)c[nH]1	1.4 nM	0.03 nM	103 nM	–	–
Cc1cc(O)cc(C)c1C[C@H](N)C(=O)N1Cc2ccccc2C[C@H]1c1nc(-c2ccccc2)c[nH]1	–	–	0.9 nM	27 nM	–
Cc1cc(C(N)=O)cc(C)c1C[C@H](N)C(=O)N(Cc1cccc(C(=O)O)c1)[C@@H](C)c1nc(-c2ccccc2)c[nH]1	0.5 nM	1 nM	> 10000 nM	–	inhibition [5]: Active
Cc1cc(C(N)=O)cc(C)c1C[C@H](N)C(=O)N(Cc1ccccc1)[C@@H](C)c1nc(-c2ccccc2)c[nH]1	–	0.3 nM	–	–	–
COc1ccc(CN(C(=O)[C@@H](N)Cc2c(C)cc(C(N)=O)cc2C)[C@@H](C)c2ncc(-c3ccccc3)[nH]2)cc1C(=O)O [ELUXADOLINE]	–	–	–	–	inhibition [5]: Active; IC50 [6]: 89 nM
N[C@@H](Cc1ccc(O)cc1)C(=O)N1Cc2ccccc2C[C@H]1c1nc(-c2ccccc2)c[nH]1	–	–	19 nM	2440 nM	–
Cc1cc(O)cc(C)c1C[C@H](N)C(=O)N1CCCC[C@H]1c1nc(-c2ccccc2)c[nH]1	–	–	37 nM	2 nM	–
Cc1cc(C(N)=O)cc(C)c1C[C@H](N)C(=O)N1CCCC[C@H]1c1nc(-c2ccccc2)c[nH]1	–	–	135 nM	9 nM	–
Cc1cc(C(N)=O)cc(C)c1C[C@H](N)C(=O)N1Cc2ccccc2C[C@H]1c1nc(-c2ccccc2)c[nH]1	–	–	22 nM	161 nM	–
COc1ccc(CN(C(=O)[C@@H](N)Cc2c(C)cc(C(N)=O)cc2C)[C@@H](C)c2nc(-c3ccccc3)c[nH]2)cc1C(=O)O [ELUXADOLINE]	1.3 nM	0.9 nM	> 10000 nM	–	Ki [7]: 55 nM; EC50 [8]: 1600 nM
COc1ccc(CN(C(=O)[C@@H](N)Cc2c(C)cc(C(N)=O)cc2C)C(C)c2nc(-c3ccccc3)c[nH]2)cc1C(=O)O.Cl.Cl (single isomer, unassigned)	–	–	–	–	IC50 [9]: > 20 µM; half-life [10]: 150 min; solubility [11]: > 1000 µg/mL; Ki [12]: 1.7 nM; IC50 [13]: > 10 µM
Cc1cc(O)cc(C)c1C[C@H](N)C(=O)N[C@@H](Cc1ccccc1)c1nc(-c2ccccc2)c[nH]1	–	13 nM	–	–	–

From ChEMBL document CHEMBL2157906, “Identification of a dual δ OR antagonist/μ OR agonist as a potential therapeutic for diarrhea-predominant Irritable Bowel Syndrome (IBS-d)” (Bioorg Med Chem Lett, 2012)
